Experimental data published in paper PMC6265983, “Identification and Molecular Docking Study of a Novel Angiotensin-I Converting Enzyme Inhibitory Peptide Derived from Enzymatic Hydrolysates of Cyclina sinensis” (Marine Drugs, 2018).
Like-named read-outs stand apart in the source and are kept apart here. Ends that are not written are not given here.

Columns and labels:
ACE = conditions: cited from earlier work; for IC50: read-out: IC50, ACE inhibition
From the text: Marine species account for about half of the world’s total biodiversity. This diversity, together with the availability of marine resources, have driven the search for new antihypertensive agents, which could be administered as functional foods or dietary supplements. Since the first discovery of a marine-derived peptide with ACE-inhibitory activity, researchers have identified a variety of antihypertensive peptides in hydrolysates from marine species, such as Synodus macrops

ACE (from rabbit lung) [1] = molecular target: T1, ACE (from rabbit lung) (Oryctolagus cuniculus, UniProt P12822); assay: ACE inhibitory activity (HHL substrate, HPLC of hippuric acid); assay type: biochemical; conditions: synthetic peptide, 37.5 °C 1 h, HPLC 228 nm, read-out: IC50 value, ACE inhibition
T1 construct: ACE (from rabbit lung); purchased Sigma Chemicals Co. (St. Louis, MO, USA); host or cells: rabbit lung tissue
T1 sequence (P12822 34-1310): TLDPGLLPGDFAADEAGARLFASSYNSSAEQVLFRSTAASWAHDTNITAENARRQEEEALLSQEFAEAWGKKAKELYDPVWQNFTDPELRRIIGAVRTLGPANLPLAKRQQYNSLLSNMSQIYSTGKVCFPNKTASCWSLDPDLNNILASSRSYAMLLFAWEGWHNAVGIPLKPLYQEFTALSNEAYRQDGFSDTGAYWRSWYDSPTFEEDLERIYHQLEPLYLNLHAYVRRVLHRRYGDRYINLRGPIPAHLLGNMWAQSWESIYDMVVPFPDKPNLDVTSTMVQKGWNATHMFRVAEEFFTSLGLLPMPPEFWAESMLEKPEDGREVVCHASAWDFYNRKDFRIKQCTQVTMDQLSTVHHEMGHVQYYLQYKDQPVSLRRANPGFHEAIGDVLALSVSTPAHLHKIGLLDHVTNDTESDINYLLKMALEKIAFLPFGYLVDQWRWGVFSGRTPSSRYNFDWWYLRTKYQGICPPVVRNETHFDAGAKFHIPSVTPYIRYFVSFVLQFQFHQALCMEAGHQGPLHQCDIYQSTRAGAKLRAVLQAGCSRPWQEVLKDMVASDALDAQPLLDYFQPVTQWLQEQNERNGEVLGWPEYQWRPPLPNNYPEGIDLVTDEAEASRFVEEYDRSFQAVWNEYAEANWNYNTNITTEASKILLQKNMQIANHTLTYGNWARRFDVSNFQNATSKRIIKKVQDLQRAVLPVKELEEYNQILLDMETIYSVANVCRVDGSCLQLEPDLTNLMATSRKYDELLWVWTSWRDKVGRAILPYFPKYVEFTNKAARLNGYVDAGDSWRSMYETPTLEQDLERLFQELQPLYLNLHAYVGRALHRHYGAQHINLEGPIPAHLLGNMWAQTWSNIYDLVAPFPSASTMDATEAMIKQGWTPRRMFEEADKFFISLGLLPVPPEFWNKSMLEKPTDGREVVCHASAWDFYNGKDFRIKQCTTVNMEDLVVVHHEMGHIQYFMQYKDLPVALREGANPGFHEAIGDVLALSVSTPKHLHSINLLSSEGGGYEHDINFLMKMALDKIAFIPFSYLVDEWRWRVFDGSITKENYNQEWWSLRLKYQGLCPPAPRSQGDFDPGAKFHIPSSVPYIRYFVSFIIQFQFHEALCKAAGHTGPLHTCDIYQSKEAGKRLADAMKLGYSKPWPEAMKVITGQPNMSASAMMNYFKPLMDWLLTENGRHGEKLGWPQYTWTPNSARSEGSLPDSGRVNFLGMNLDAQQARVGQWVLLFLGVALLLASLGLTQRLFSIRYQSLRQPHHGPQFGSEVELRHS
From the text: Trypsin (from bovine pancreas, 200 U/mg) and pepsin (from porcine gastric mucosa, 300 U/mg) were purchased from YTHX Biotechnology Co., Ltd. (Beijing, China). ACE (from rabbit lung), and the ACE synthetic substrate hippuryl-L-histidyl-L-leucine (HHL) were purchased from Sigma Chemicals Co. (St. Louis, MO, USA). Other chemicals and reagents used were of analytical grade, except acetonitrile and trifluoroacetic acid (TFA), which were HPLC grade (Sinopharm Chemical Reagent Co., Ltd, Shanghai, China).
To determine the ACE inhibitory activity, we used the method described by D.W.Cushman and Lisete Paiva, with slight modifications. Briefly, 120 μL of 5 mM HHL solution and 20 μL of 1 mg/mL sample solution were mixed thoroughly and pre-incubated for 5 min at 37.5 °C. The control was prepared by replacing the sample solution with 20 μL of 300 mM NaCl in 100 mM borate buffer (pH 8.3). Then, 10 μL of ACE (0.1 U/mL) solution was added, tubes were mixed well, and incubated at 37.5 °C for 1 h in a water bath. […] The reaction solutions were then filtered through a 0.45 μm microporous membrane and quantified by using a ZORBAX SB-C18 analytical column (4.6 mm × 250 mm, 5 μm, 25 °C) and an Agilent HPLC ChemStation, consisting of a G1311C quaternary pump VL, a G1329B standard autosampler, a G1316A column oven, and a G1314F variable wavelength detector. […] Hippuric acid (HA) was detected at 228 nm. […]

ACE (from rabbit lung) [2] = molecular target: T1, ACE (from rabbit lung); assay: Stability of ACE inhibitory activity in simulated gastric and intestinal fluid; assay type: in vitro ADME; conditions: read-out: ACE inhibitory activity of the control (undigested peptide)
Protocol: Simulated gastric fluid (SGF[sp]): Concentrated hydrochloric acid (37%) was diluted to a 9.5% to 10.5% solution. Then, 800 mL of water and 10 g of pepsin were added to 16.4 mL of this diluted hydrochloric acid solution, mixed well, and the volume completed to 1000 mL with water.
Simulated intestinal fluid (SIF[sp]): 6.8 g of KH2PO4 was dissolved in 500 mL of water, and the pH was adjusted to 6.8 with 0.1 M NaOH. Then ten grams of trypsin were dissolved in an appropriate amount of water, added to the solution described above, and diluted to 1000 mL with water.
The in vitro stability of the ACE inhibitory peptide in the simulated gastrointestinal environments was determined according to the method described by Yu et al [68]. […] (0.5 mg/mL) and incubated for 2 h at 37.5 °C. In addition, the peptide solution was first incubated with SGF[sp] at 37.5 °C for 2 h, the solvent was removed by means of a centrifugal filter concentrator, and was then incubated with SIF[sp] for 2 h. The reaction mixtures were then boiled to inactivate the enzyme. After cooling to room temperature, samples were centrifuged at −4 °C (10000 rpm, 15 min) and the supernatant was adjusted to pH = 7 for the determination of the ACE inhibitory activity.

[3] = from scorpion (Hemiscorpius lepturus) venom

AFPYYGHHLG
ACE inhibition mode (ACE; [3]): competitive

AGPPGSDGQPGAK [antihypertensive peptide from Synodus macrops hydrolysate]
IC50 (ACE; peptide from Synodus macrops): 420 µM

Arg-Tyr-Leu [RYL]
ACE inhibition mode (ACE; from Silkworm Pupa): competitive

IGPR [antihypertensive peptide from Salmo salar]
IC50 (ACE; peptides from Salmo salar): 430 µM

SSSKAKKMP [antihypertensive peptide from shrimps]
IC50 (ACE; peptide from shrimps): 880 µM

Tyr-Gln-Lys [YQK]
ACE inhibition mode (ACE; from bovine casein): competitive

VVSLSIPR
ACE inhibition mode (ACE; from pigeon pea (Cajanus cajan)): competitive

WPMGF [WPMGF, Trp-Pro-Met-Gly-Phe]
IC50 (ACE (from rabbit lung) [1]): 789 µM | inhibition at 500 µg/mL (ACE (from rabbit lung) [2]): 51.5 ± 0.72%

YLYELAR [YLYELAR]
ACE inhibition mode (ACE; [3]): competitive
